Data from patent US8956999B2, “Herbicides” (Syngenta Limited, priority 2007, dated 2015).

Tests used:
Type in all cases: in vivo
[1] = tested on: Alopecurus myosuroides (ALOMY); assay: Example B post-emergence herbicidal test, glasshouse; conditions: 312 h, rate 250 g/ha, evaluated after 13 days, read-out: Post-Emergence Activity ALOMY (100=total damage to plant; 0=no damage to plant)
Procedure, shortened: (§1)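 A 0.5% Tween 20 acetone/water (50:50) formulation, diluted in water, is sprayed onto potted plants one day after sowing or after 8 days of growth. Plants are kept at 24/16 °C day/night with 14 h light and 65% humidity. Damage is rated 0–100 after 13 days.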

Avena fatua (AVEFA) [2] = assay: as above; conditions: 312 h, rate 250 g/ha, evaluated after 13 days, read-out: Post-Emergence Activity AVEFA (100=total damage to plant; 0=no damage to plant)
Procedure, shortened: as §1

[3] = tested on: Amaranthus retoflexus (AMARE); assay: as above; conditions: Amaranthus retroflexus, 312 h, rate 250 g/ha, evaluated after 13 days, read-out: Post-Emergence Activity AMARE (100=total damage to plant; 0=no damage to plant)
Procedure, shortened: as §1

[4] = tested on: Echinochloa crus-galli (ECHCG); assay: as above; conditions: 312 h, rate 250 g/ha, evaluated after 13 days, read-out: Post-Emergence Activity ECHGG (100=total damage to plant; 0=no damage to plant)
Procedure, shortened: as §1

Setaria faberi (SETFA) [5] = assay: as above; conditions: 312 h, rate 250 g/ha, evaluated after 13 days, read-out: Post-Emergence Activity SEFTA (100=total damage to plant; 0=no damage to plant)
Procedure, shortened: as §1

[6] = tested on: Alopecurus myosuroides (ALOMY); assay: Example B pre-emergence herbicidal test, glasshouse; conditions: 312 h, rate 250 g/ha, evaluated after 13 days, 100=total damage to plant, 0=no damage to plant
Procedure, shortened: as §1

Avena fatua (AVEFA) [7] = assay: as above; conditions: 312 h, rate 250 g/ha, evaluated after 13 days, 100=total damage to plant, 0=no damage to plant
Procedure, shortened: as §1

[8] = tested on: Amaranthus retoflexus (AMARE); assay: as above; conditions: Amaranthus retroflexus, 312 h, rate 250 g/ha, evaluated after 13 days, 100=total damage to plant, 0=no damage to plant
Procedure, shortened: as §1

[9] = tested on: Echinochloa crus-galli (ECHCG); assay: as above; conditions: Echinochloa crus-galli, 312 h, rate 250 g/ha, evaluated after 13 days, 100=total damage to plant, 0=no damage to plant, read-out: Pre-Emergence Activity ECHGG
Procedure, shortened: as §1

Setaria faberi (SETFA) [10] = assay: as above; conditions: Setaria faberi, 312 h, rate 250 g/ha, evaluated after 13 days, 100=total damage to plant, 0=no damage to plant, read-out: Pre-Emergence Activity SEFTA
Procedure, shortened: as §1

| SMILES | pest or weed control at 250 g/ha [1] [%] | pest or weed control at 250 g/ha (Avena fatua (AVEFA) [2]) [%] | pest or weed control at 250 g/ha [3] [%] | pest or weed control at 250 g/ha [4] [%] | pest or weed control at 250 g/ha (Setaria faberi (SETFA) [5]) [%] | pest or weed control at 250 g/ha [6] [%] | pest or weed control at 250 g/ha (Avena fatua (AVEFA) [7]) [%] | pest or weed control at 250 g/ha [8] [%] | pest or weed control at 250 g/ha [9] [%] | pest or weed control at 250 g/ha (Setaria faberi (SETFA) [10]) [%] |
| --- | --- | --- | --- | --- | --- | --- | --- | --- | --- | --- |
| CCc1sc(-c2ccc(OC(F)F)cc2)nc1C1C(=O)C(C)(C)OC(C)(C)C1=O [Compound T62] | 100 | 100 | 0 | 100 | 100 | 90 | 0 | 0 | 60 | 100 |
| CCc1sc(-c2ccc(Br)cn2)nc1C1C(=O)C(C)(C)OC(C)(C)C1=O [Compound T63] | 80 | 90 | 0 | 100 | 100 | 20 | 20 | 0 | 30 | 20 |
| CCc1sc(-c2c(C)cc(Cl)cc2F)nc1C1C(=O)C(C)(C)OC(C)(C)C1=O [Compound T64] | 20 | 60 | 0 | 100 | 100 | 0 | 0 | 0 | 70 | 100 |
| Cc1sc(-c2ccc([S+](C)[O-])cc2)nc1C1C(=O)C(C)(C)OC(C)(C)C1=O (stereo not shown) [Compound T68] | 0 | 0 | 0 | 80 | 70 | 0 | 0 | 0 | 20 | 20 |
| CCc1sc(-c2ccc(SC)cc2)nc1C1C(=O)C(C)(C)OC(C)(C)C1=O [Compound T69] | 60 | 40 | 0 | 100 | 90 | 0 | 0 | 0 | 20 | 20 |
| Cc1sc(-c2ccc(OC(F)F)cc2Cl)nc1C1C(=O)C(C)(C)OC(C)(C)C1=O [Compound T70] | 70 | 10 | 0 | 90 | 90 | 30 | 0 | 0 | 70 | 70 |
| Cc1cnc(-c2ccc(Cl)cc2)nc1C1C(=O)C(C)(C)OC(C)(C)C1=O [Compound T71, 4-[2-(4-chlorophenyl)-5-methylpyrimidin-4-yl]-2,2,6,6-tetramethylpyran-3,5-dione] | 20 | 40 | 0 | 90 | 90 | 20 | 0 | 0 | 60 | 50 |
